# Laboratory results: patent US20140243239A1, “MULTIPLEXED KINASE INHIBITOR BEADS AND USES THEREOF” (University of North Carolina at Chapel Hill, priority 2011, published 2014)
# What was measured:
# MDA-MB-231 cells = test: MDA-MB-231 cell growth (Cell-Titer Glo); assay type: cell-based, human; conditions: 5 μM MEK inhibitor (FIG. 9A)
# Protocol: (§1) Cell Culture: MDA-MB-231 cells were grown in DMEM/F12 supplemented with 10% FBS. SUM-159 cells were grown in DMEM/F12 supplemented with 10% FBS 1 μg/mL hydrocortisone, and 5 μg/mL insulin. SUM159-R cells were continually grown in the presence of 5 μM AZD6244. For SILAC labeling, cells were grown for five doublings in arginine- and lysine-depleted media (as above) supplemented with either unlabeled L-arginine (42 mg/L) and L-lysine (71 mg/L) or equimolar amounts of heavy isotope labeled [13C6,15N4]arginine (Arg10) and [13C6]lysine (Lys6) (Cambridge Isotope Laboratories). Proliferation was quantified using Cell-Titer Glo Luminescent Cell Viability Assay (Promega). Fresh media containing DMSO or kinase inhibitors was added daily and experiments were performed in triplicate.
# SUM159-R cells = test: Growth of AZD6244-resistant SUM159-R cells; assay type: cell-based, human; conditions: 25 μM AZD6244
# Protocol: as §1
# (§2) Generation of AZD6244 resistant SUM159 cells: SUM159 cells were cultured in DMEM/F12 supplemented with 10% FBS media containing 5 μM AZD6244. Media was changed every 2 days, maintaining inhibitor concentrations of 5 μM AZD6244.
# ERK1/2 [1] = test: Western blot of MEK/ERK signaling in SUM159 cells; assay type: cell-based, human; conditions: 15 min-4 h, SUM159 and MDA-MB-231 cells
# Source text: (§3) Detailed methods and antibodies are provided in Supplemental Experimental Procedures.
# (§4) Western blotting: Proteins from cell lysates were separated by SDS-PAGE chromatography, transferred to nitrocellulose membranes, and probed with the indicated primary antibodies. Antibodies recognizing pAKT (S473), pAKT (T308), AURA, pAXL (Y702), AXL, c-Myc, DDR1, EGFR, pERK1/2 (T202/Y204), pHER3 (Y1197), MAX, pMEK1/2 (S217/S221), MEK1/2, MKP3, pP70S6K (T389), pPDGFRβ (Y751), pPDGFRβ (Y1009), pPDGFR (Y857), PDGFRβ, pRAF (S338), pRSK1 (T359/S363), pVEGFR2 (Y1175), VEGFR2 were obtained from Cell Signaling Technology. Antibodies for Cyclin A2, Cyclin B1, Cyclin D1, ERK2, RAF, and pRAF (S259) were obtained from Santa Cruz Biotechnology. The antibody recognizing Bim was obtained from Chemicon. The antibody recognizing p-c-Myc (S62) was obtained from Abeam. Secondary HRP-anti-rabbit and HRP-anti-goat secondary antibodies were from Jackson Immunoresearch Laboratories and Santa Cruz Biotechnology, respectively. Western blots were visualized by incubation with SuperSignal West Pico Chemiluminescent Substrate (Thermo Scientific).
# c-Myc = c-Myc protein and RNA levels in SUM159 cells (western blot, qRT-PCR); assay type: cell-based, human; conditions: 5 μM AZD6244
# Protocol: Western blotting and RTK arrays: Western blotting and RTK array analysis were performed as previously described (Amin et al., 2010). Amin et al. 2010 Sci Transl Med 2, 16ra17. Detailed methods and antibodies are provided in Supplemental Experimental Procedures.
# qRT-PCR: Total RNA was isolated from human breast cancer cell lines or murine tumors using the RNeasy® Plus Mini Kit (Qiagen). Real-time RT-PCR was performed on diluted cDNA using the Applied Biosystems 7500 Fast Real-Time PCR System (standard program) and inventoried TaqMan® Gene Expression Assays. Each cDNA sample was assayed in triplicate. Fold change with respect to the calibrator represents the average of the triplicate values, with error bars representing the range of the mean (95% confidence).
# as §4
# ERK1/2 [2] = test: ERK activity in SUM159-R cells (western blot); assay type: cell-based, human
# Protocol: as §3, §2, §4
# C3Tag tumors = test: In vivo tumorigenesis experiment, C3Tag TNBC GEMM (tumor volume); set-up: species or system mouse; conditions: 21 days, AZD6244 20 mg/kg, sorafenib 30 mg/kg in diet
# Protocol: In vivo tumorigenesis experiments: Animal handling and procedures were approved by the University of North Carolina at Chapel Hill Institutional Animal Care and Use Committee and followed the NIH guidelines. Male C3Tag mice were bred with wild type females to produce experimental offspring. Mice were examined for tumors weekly until a palpable mass was found. Treatment began the same day. Tumor size was assessed twice weekly by caliper measurements of tumor areas ((width)2×length))/2 for 21 days. Percent change of tumor volume was calculated using (Final volume−Initial Volume)/Initial Volume and graphed using R (http://www.r-project.org/). Drugs were incorporated into the diet of mice to achieve a daily dose of AZD6244 20 mg/kg and sorafenib 30 mg/kg. Food was provided ab libitum and the amount of daily food intake was pre-determined using Jackson Labs Phenome Database. Tumors at harvest were cut in half and either snap-frozen in liquid nitrogen and stored at −80° C. or placed in neutral buffered 10% formalin solution.
structure (smiles),measurement,setting,value
Cn1cnc2c(F)c(Nc3ccc(Br)cc3Cl)c(C(=O)NOCCO)cc21 [AZD6244],growth of MDA-MB-231 cells,MDA-MB-231 cells,inhibited growth
same,growth of SUM159-R cells,SUM159-R cells,growth arrested
same,"MEK and ERK, early response",ERK1/2 [1],rapidly inhibited
same,c-Myc protein and mRNA,c-Myc,rapid loss of c-Myc protein and c-Myc mRNA
same,ERK activation in SUM159-R cells,ERK1/2 [2]; 25 μM AZD6244,inhibited ERK activation
same,ERK activity in SUM159-R cells,ERK1/2 [2]; 50 μM AZD6244,can be inhibited
same,mice with tumor regression,C3Tag tumors,30%
